Results published in patent publication US12559471B2, “1,5-dihydro-2,4-benzodiazepine-3-one derivative and application thereof” (JIANGSU NHWA PHARMACEUTICAL CO., LTD, priority 2020, dated 2026).
Several values for one entry are separate records, joined by “and”; a condition that tells them apart may be missing. Equal values may be shown once.

Key:
[1] = test system: MPTP+APO-induced climbing behavior in male mice; experiment: MPTP+APO-induced climbing behavior in male mice (DA motor deterioration model); assay type: in vivo; settings: observation in words
Protocol: 1.2 Effect on MPTP+APO-induced climbing behavior in male mice (DA motor deterioration model) Animals were injected with different doses of MPTP intraperitoneally every morning for 5 consecutive days. […] After the subcutaneous injection, animals were immediately placed into a climbing cage (self-made, a cylindrical cage with the diameter of 13 cm and the height of 15 cm, made of a stainless steel wire mesh with the diameter of about 0.1 cm, the bottom of which is a semitransparent polyethylene plate, and the cage cover of which is a stainless steel cage cover), and the behaviors of animals at minutes 10-11, 20-21 and 30-31 after the APO injection was observed and scored.
Scoring criteria: four feet on the floor scored 0; two forepaws on the cage scored 1; and four feet on the cage scored 2.

[2] = test system: DOI-induced PPI impairment in rats; experiment: DOI-induced PPI impairment test in rats (intervention test); assay type: in vivo; settings: DOI 0.5 mg/kg
Protocol: 3. DOI ((f)-1-(2,5-dimethoxy-4-iodophenyl)-2-aminopropane hydrochloride or (f)-2,5-dimethoxy-4-iodoamphetamine hydrochloride) induced PPI impairment effect test in rats
30 min after the intragastric administration of a drug (or a vehicle) and 30 min after the subcutaneous injection of DOI at 0.5 mg/kg at the neck, namely 60 min after the intragastric administration, the rats were placed into a startle reflex test box for testing.
The test was performed according to literature and preliminary experiments, and the specific process was as follows: first an adaptation period of 5 min was given (62 dB background sound), and 5 separate startle reflex stimuli were given after the adaptation period (blockl, results not included in the analysis to reduce the initial response of the animals to a plateau level), followed by 4 different types of tests (block2) presented in a pseudo-random manner, namely: 1) startle reflex stimulus alone (pulse-alone, 120 dB, lasting 20 ms); 2) prepulse stimulus alone 13 dB above the background sound (prepulse-alone, 75 dB, lasting 20 ms); 3) prepulse stimulus in combination with startle reflex stimulus, each lasting 20 ms, with an interval of 100 ms; and 4) no stimulus in which only the background sound was given (no stimulus). Each trial was performed 5 times, with an average interval of 20 s (10-30 s) between trials.
The response amplitude of the startle reflex stimulus alone or the prepulse stimulus in combination with startle reflex stimulus was expressed as the AVG (instrument-specific unit) value, which indirectly reflects the size of the flinching response of the rat body. Evaluation index: PPI %=(1−response amplitude of prepulse stimulus in combination with startle reflex stimulus/response amplitude of startle reflex stimulus alone)×100. The higher the value is, the greater the degree of the inhibition is.

[3] = Investigation of sedation side effects (autonomic activity, movement distance); assay type: in vivo, mice; settings: mouse, in vivo, ip; C57BL/6j mice, intraperitoneal, 45 min after administration
Protocol: (§1) 1.3 Investigation of Sedation Side Effects (Anti-Sedation Model)
(§2) According to different doses of each group, solutions at different concentrations were separately formulated for intraperitoneal injection, with the final administration volume of 10 mL/kg.
(§3) The movement at 0-20 min was recorded on video, and the movement distance in 20 min was analyzed by Top Scan 3.00 software. The inhibition rate of each group relative to the blank group after the administration were calculated, and the sedation effects of the compounds were comprehensively evaluated in combination with a statistical conclusion.

C57BL/6j mice = experiment: as above; assay type: in vivo; settings: sedation ED50 / PDP efficacy ED50
Protocol: as §1, §2, §3

With `CC(C)COc1ccc(CN2Cc3ccc(F)cc3CN(C3CCN(C)CC3)C2=O)cc1` [NH-K-A19005, 8-fluoro-2-(1-methylpiperidin-4-yl)-4-[[4-(2-methylpropoxy)phenyl]methyl]-1,5-dihydro-2,4-benzo diazepine-3-one] the “motor deterioration (DA mechanism of action)” value [1] was “no motor deterioration is observed”, the “reversal of DOI-induced PPI impairment” value ([2]; 3 mg/kg, P<0.05) was “significantly reverse” and the “PPI %, MEAN” value ([2]; 1 mg/kg intragastric) was 40.15%. For the same compound, the “PPI %, individual animal” value ([2]; 1 mg/kg intragastric) was 55.27% and 13.13% and 49.29% and 40.22% and 11.24% and 71.74%, the “PPI %, MEAN” value ([2]; 3 mg/kg intragastric) was 42.95% and the “PPI %, individual animal” value ([2]; 3 mg/kg intragastric) was 36.23% and 53.57% and 36.93% and 47.37% and 45.54% and 61.94% and 38.90% and 23.16%. For the same compound, the “PPI %, MEAN” value ([2]; 10 mg/kg intragastric) was 52.40%, the “PPI %, individual animal” value ([2]; 10 mg/kg intragastric) was 86.67% and 28.57% and 78.84% and 65.78% and 63.08% and 0.38% and 52.03% and 43.86% and the ED50 at 45 min [3] was 20 mg/kg. The “Ratio of sedation ED50 to PDP efficacy ED50” value (C57BL/6j mice) was 10.8.
